From patent US20190084968A1, “FUMAGILLOL HETEROCYCLIC COMPOUNDS AND METHODS OF MAKING AND USING SAME” (Zafgen, Inc., priority 2015, published 2019)
Counter-ions that a name gives are not always drawn.

Key:
[1] = molecular target: T1, recombinant human MetAP2 (Homo sapiens, UniProt P50579); assay: Recombinant human MetAP2 enzyme inhibition assay (MAS peptide / amino acid oxidase / Amplex UltraRed); type: biochemical
T1 construct: Flag; made in house
Experimental: Compounds are tested for their capacity to inhibit recombinant human MetAP2 activity using the following assay.
Flag tagged Human recombinant MetAP2 expressed and isolated for use as the enzyme source. 10 mM stock solutions of compounds were prepared in 100% DMSO and further diluted in 100% DMSO required concentration to 1 mM stocks. The stock compound solutions and DMSO vehicle controls were diluted to target final compound concentrations using assay buffer to a final concentration of 50 mM HEPES containing 100 mM NaCl, pH adjusted to 7.5. The MAS peptide was formulated to a 7.5 mM stock in distilled water and prior to use further diluted 1:4. […] 40 μl of enzyme was mixed with 100 μl of MnCl2 then further diluted in assay buffer to a final concentration of 16 μg/ml. To test for compound effect on MetAP2 enzyme activity, 5 μl of test compound, 10 μl of MAS substrate/amino acid oxidase mixture, 10 μl of MetAP2 was added to test wells in a 384 well black plate with blank wells containing no enzyme, replaced with 10 μl of assay buffer. All compounds were tested in duplicate on two occasions on the same day.
The plate was sealed with a TopSeal A cover and mixed briefly on an orbital mixer at 900 rpm. The plate was incubated for a further 25 minutes at 25° C. A 5× stock of Amplex buffer was prepared (0.25M sodium phosphate, pH 7.4) and stored at 4° C. When preparing for use the stock was diluted with distilled water. […] 25 μl detection reagent was added to each well of the test plate, which was re-sealed and mixed briefly on an orbital shaker. […] At the end of the MetAP2 incubation 25 μl Amplex/HRP mixture per well was added and the plate read plate on a plate reader.

[2] = system: embryo/fetal development in pregnant Sprague Dawley rats; conditions: 6 mpk subcutaneously once every three days, Gestation Days 6-18, pregnant rats
Experimental: The objective of this study design was to evaluate the potential effects of disclosed compounds on embryo/fetal development when given subcutaneously to pregnant rats once every three days during the critical period of organogenesis (Gestation Days 6-18). Female, Sprague Dawley rats, approximately 10 weeks of age, time bred, were ordered from a certified vendor and housed individually housed in stainless steel cages suspended over flush pans, on a 12-hour light-dark cycle (0700-1900) at 20-26° C. and 30-70% humidity. Rats were fed a standard rodent chow and provided water ad libitum. Rats were received and housed in the facility for a period of approximately 1 to 2 days.
Compounds were formulated using 100% DMSO mixed in Sterile Water for Injection, resulting in 2% DMSO solution in water. If necessary, due to limited solubility of a test article, a higher percentage of DMSO solution in water was used. Groups of 8 mated and presumed pregnant female rats were given subcutaneous doses of vehicle or test article, once every three days, beginning on Gestation Day 6 and ending on Gestation Day 18 (Days 6, 9, 12, 15, and 18), maintained two more days, and then euthanized and necropsied on Gestation Day 20. Body weights was recorded for all animals on Gestation Days 5 (purpose of randomization), 6, 9, 12, 15, 18, and 20 (scheduled euthanasia). Food consumption by weight was recorded on Gestation Days 6, 9, 12, 15, 18, and 20 (scheduled termination).
At necropsy, the dams were examined visually for external abnormalities including palpable masses. The abdominal, thoracic, and cranial cavities and their contents were examined for abnormalities and findings will be recorded. The reproductive tract were examined to record the number of ovarian corpora lutea, the number and location of uterine implantation sites noting the position of the cervix, and the number of early resorptions, late resorptions, live fetuses, and dead fetuses. For dead fetuses and late resorptions, crown-to-rump length and weight were recorded, if possible, and the fetus was discarded. For viable fetuses, weight, sex, and grossly visible external abnormalities were recorded.

[3] = system: Sprague Dawley rats on high fat diet (DIO); assay: 11 day rat DIO model (body weight, food intake, hematology, blood chemistry); type: in vivo; conditions: rat, in vivo, sc
From the text: The objective of this study design is to investigate the efficacy of disclosed compounds in an 11 day rat DIO model used to screen compounds for pharmacologic efficacy on endpoints related to obesity and metabolism. Effects on body weight, food intake, hematology and blood chemistries were the primary readouts of this study design. […] Rats were fed Research Diets D12451 (45% High Fat) and provided water ad libitum. Rats were received and housed in the facility for at least two or three weeks prior to start of test article administration. On Day −4 or −3, rats were randomized into study groups based on body weight and body weights were continued to be recorded daily for the duration of the study. Daily food intake was assessed starting on Study Day −2 by weighing the hopper including the food to avoid loss of food in transfer.
(§1) Compounds were formulated into a 100% DMSO stock (at 9 mg/mL) prior to the start, and further diluted into the target working concentration using the vehicle of 10% DMSO in water. Prior to test article administration, starting on Day −3 a dosing acclimation occured with all animals receiving a subcutaneous injection of vehicle (10% DMSO) only for 3 days. Starting on Day 1, test compounds or vehicle were administered based on individual body weight, subcutaneously, once a day for 11 days. All animals were sacrificed on Day 11, approximately 2 hours following the final dosing on Day 11. After sacrifice, whole blood was collected and analyzed for hematology and blood chemistry parameters.
(§2) Compounds were tested vs. vehicle at various doses (1.0, 0.5, 0.3, 0.1, 0.03 mpk sc (mg per kg animal weight delivered subcutaneously), and the results are shown in Table 2 below.

[4] = system: Diet Induced Obese (DIO) C57BL/6 mice; assay: 10 day DIO mouse model (body weight, food intake, hematology, blood chemistry); type: in vivo; conditions: mouse, in vivo, sc, 0.3 mg/kg
From the text: The objective of this study design was to investigate the efficacy of disclosed compounds in a 10 day DIO mouse model. Effects on body weight, food intake, hematology and blood chemistry were the primary readouts of this study design. […] Mice were fed Research Diets D12492 (60% Kcal fat, 20% Kcal carbohydrate and 20% protein) and provided water ad libitum. DIO mice were received and housed in the facility for approximately two weeks prior to the start of test article administration. On Day −4 or −3, mice were randomized into study groups based on body weight and body weights were continued to be recorded daily for the duration of the study. Daily food intake was assessed starting on Study Day −2 by weighing of the food with hopper together to avoid loss of food in transfer.
as §1, with “for 10” for “for 11”, “All mice” for “All animals”, “11, 24” for “11, approximately 2”, “Day 10.” for “Day 11.”
as §2

T1 sequence (P50579 whole entry): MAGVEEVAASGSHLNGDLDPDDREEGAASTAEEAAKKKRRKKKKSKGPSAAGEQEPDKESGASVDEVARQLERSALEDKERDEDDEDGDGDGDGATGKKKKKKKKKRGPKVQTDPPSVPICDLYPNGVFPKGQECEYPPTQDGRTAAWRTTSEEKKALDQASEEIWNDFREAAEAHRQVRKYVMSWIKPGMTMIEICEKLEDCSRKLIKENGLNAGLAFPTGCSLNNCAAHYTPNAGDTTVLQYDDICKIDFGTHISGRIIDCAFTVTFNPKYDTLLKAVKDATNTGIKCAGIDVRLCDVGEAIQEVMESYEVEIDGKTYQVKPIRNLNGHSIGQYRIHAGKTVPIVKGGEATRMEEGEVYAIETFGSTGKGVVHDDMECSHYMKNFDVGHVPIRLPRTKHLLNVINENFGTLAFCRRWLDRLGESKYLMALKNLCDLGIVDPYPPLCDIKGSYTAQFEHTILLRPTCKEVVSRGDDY

Row | Structure (SMILES) | IC50 [1] | Rat Embryofetal @6 mpk [2] | DIO Rat 11-day weight loss vs vehicle at indicated dose ([3]; 0.3 mg/kg) | DIO Rat 11-day weight loss vs vehicle at indicated dose ([3]; 1 mg/kg) | DIO Mouse 10-day weight loss vs vehicle at indicated dose [4]
1 | CO[C@@H]1[C@H](OC(=O)N2CC(CCN3CC(O)C3)C2)CC[C@]2(CO2)[C@H]1[C@@]1(C)O[C@@H]1CC=C(C)C [Example 6, (3R,4S,5S,6R)-5-methoxy-4-((2R,3R)-2-methyl-3-(3-methylbut-2-enyl)oxiran-2-yl)-1-oxaspiro[2.5]octan-6-yl 3-(2-(3-hydroxyazetidin-1-yl)ethyl)azetidine-1-carboxylate formate] | < 50 nM | Positive | 0.8% | 4.6% | 11.8%
2 | CO[C@@H]1[C@H](OC(=O)N2CC(CCN3CC(C)(O)C3)C2)CC[C@]2(CO2)[C@H]1[C@@]1(C)O[C@@H]1CC=C(C)C [Example 9, (3R,4S,5S,6R)-5-methoxy-4-((2R,3R)-2-methyl-3-(3-methylbut-2-enyl)oxiran-2-yl)-1-oxaspiro[2.5]octan-6-yl 3-(2-(3-hydroxy-3-methylazetidin-1-yl)ethyl)azetidine-1-carboxylate formate] | < 50 nM | Positive | 5.5% | 4.8% | 7.4%
3 | CO[C@@H]1[C@H](OC(=O)N2CC(CCN3CC4C(C3)C4(F)F)C2)CC[C@]2(CO2)[C@H]1[C@@]1(C)O[C@@H]1CC=C(C)C (stereo partly drawn) [Example 22, (3R,4S,5S,6R)-5-methoxy-4-((2R,3R)-2-methyl-3-(3-methylbut-2-enyl)oxiran-2-yl)-1-oxaspiro[2.5]octan-6-yl 3-(2-(6,6-difluoro-3-azabicyclo[3.1.0]hexan-3-yl)ethyl)azetidine-1-carboxylate formate] | < 50 nM | Negative |  |  | 14%
